Data published in ChEMBL document CHEMBL5653627 (J Neurochem, 2017).

Assays:
Assay type in all cases: functional
SMA-560 [1] = experiment: Induction of apoptosis in mouse SMA-560 cells assessed as live cells incubated for 72 hrs by Annexin V-FITC/PI staining based flow cytometric analysis (reference value: 84.6%)
SMA-560 [2] = experiment: Induction of apoptosis in mouse SMA-560 cells assessed as early apoptotic cells incubated for 72 hrs by Annexin V-FITC/PI staining based flow cytometric analysis (reference value: 0.0056%)
SMA-560 [3] = experiment: Induction of apoptosis in mouse SMA-560 cells assessed as late apoptotic cells incubated for 72 hrs by Annexin V-FITC/PI staining based flow cytometric analysis (reference value: 1.83%)

For CN[C@@H]1C[C@H]2O[C@@](C)([C@@H]1OC)n1c3ccccc3c3c4c(c5c6ccccc6n2c5c31)C(=O)NC4 [STAUROSPORINE], the Activity (SMA-560 [1]) was 1.29%, the Activity (SMA-560 [2]) was 0% and the Activity (SMA-560 [3]) was 87.7%.
